“And” between values parts separate entries of the source, which are not always exact repeats. Equal values may be shown once.
Columns and labels:
[1] = Peroxynitrite-mediated nitration of GYA peptide; format: biochemical; conditions: 2 mM GYA, 10 μM MP, pH 7.4
Method: Nitration efficiency, defined as the moles of nitrated GYA peptide formed per mole of peroxynitrite added, was determined at a fixed concentration of 10 μM MP or Cu,Zn SOD subunit, or 1 mM CO2 as described below. Increasing amounts of peroxynitrite were added in a sequential manner in order to determine whether nitration efficiency varied with concentration and to determine whether nitration catalysis was maintained with multiple additions (see INSET). Nitration efficiency was calculated for each peroxynitrite addition; the values shown are the average of all nine peroxynitrite additions. Absorbance changes were monitored simultaneously at 380, 430, and 460 nm.
(§1) For nitration of GYA peptide (see FIG. 6), reaction solutions contained 2 mM GYA and 10 μM of the indicated MP in 1.4 ml of 0.1 M potassium phosphate, pH 7.4 at 37° C. Comparisons with two previously characterized nitration catalysts, human Cu,Zn superoxide dismutase (hCu,Zn SOD) and carbon dioxide, were made using 10 μM of SOD subunit and 25 mM potassium bicarbonate, respectively, which was pH-adjusted to 7.4. This level of bicarbonate results in rapid saturation of the solution with carbon dioxide (˜1 mM). Solutions were placed into a rapidly stirred cuvette and nine bolus additions (50 μM×3, 100 μM×3, and 200 μM×3) of peroxynitrite were made sequentially while the absorbance was monitored. Increasing amounts of peroxynitrite were added in a sequential manner in order to determine whether nitration efficiency varied with concentration and to determine whether nitration catalysis was maintained with multiple additions (see FIG. 6 inset). Nitration efficiency was defined as the amount of nitropeptide formed per amount of peroxynitrite added and was calculated for each peroxynitrite addition; the values shown are the average of all nine peroxynitrite additions. The absorbance changes associated with nitrotyrosine peptide production were monitored simultaneously at 380, 430, and 460 nm. The extinction coefficients for nitrated GYA at pH 7.4 are 4,400 M^−1cm^−1 at 430 nm and 2,200 M^−1cm^−1 at both 380 and 460 nm. […] Wavelengths used to quantify nitrotyrosine production were chosen to minimize interference by the particular metalloporphyrin used. Experiments using HPA as a nitration target (FIG. 7) contained 8 mM HPA in either 0.1 M potassium phosphate, pH 7.4 or 0.1 M sodium borate, pH 9.1.
The relative abilities of several MPs to enhance nitration of the tripeptide GYA was compared using 10 μM MP and sequential bolus additions of 50 μM (×3), 100 μM (×3), and 200 μM (×3)peroxynitrite (FIG. 6, inset).

[2] = Ascorbate oxidation by MPs monitored at 266 nm; format: biochemical; conditions: MP 10 μM, 50 μM ascorbate, 0.1 M potassium phosphate pH 7.4, ± standard error, n=3
Method: (§2) In order to test the hypothesis that Mn(II)- or Fe(II)-porphyrins would be capable of carrying out two-electron reductions of peroxynitrite and thereby decreasing rather than increasing its reactivity, attempts were made to pre-reduce these transition metal-containing MPs prior to addition of peroxynitrite.
Table V. Ascorbate oxidation by MPs. MPs (10 μM) were added to stirred cuvettes containing 0.1 M potassium phosphate, pH 7.4 and 50 μM ascorbate. Ascorbate oxidation was monitored at 266 nm (ηm=17,700 M^−1cm^−1). Oxidation rates (±standard errors) were determined by fitting the initial linear portion of each curve and averaging the rates (n=3).

[3] = MP 5 μM, GSH 2 mM, 0.1 M potassium phosphate pH 7.4, 37° C.
Method: Aliquots (14 μl) were removed at 10 min intervals and added to 1.4 of 0.1 M potassium phosphate, pH 7.4 containing 0.2 mM dithionitrobenzoic acid (Ellman's Reagent) and 50 μM EDTA. GSH concentration was determined by the change in 430 nm absorbance. The extinction coefficient at 430 nm was determined to be 13,900 M^−1cm^−1 using a fresh GSH solution standardized by weight.
as §2

[4] = Oxidation of metalloporphyrins by peroxynitrite, stopped-flow spectroscopy; format: biochemical; conditions: 37° C., 0.1 M potassium phosphate pH 7.4, pseudo-first order, ± standard error
Method: Peroxynitrite (in 10 mM NaOH) was rapidly mixed with the indicated MPs in 0.1 M potassium phosphate, pH 7.4 at 37° C. using a stopped-flow apparatus as described in Methods. […] A final concentration of 40 μM peroxynitrite was added to 8 μM of each of the MPs MnTBAP, MnPPIX, and FePPIX. […] INSET: Apparent rate constants for oxidation of 8 μM MnTBAP are plotted as a function of peroxynitrite concentration to illustrate how the rate constants listed in Table III were determined.
Rates of metal loporphyrin oxidation by peroxynitrite were determined using a Bio Sequential SX-18MV Applied Photophysics stopped-flow spectrofluorometer. Solutions of metalloporphyrins in 0.1 M potassium phosphate buffer, pH 7.4 were placed in one syringe and solutions of peroxynitrite in 10 mM NaOH were placed in a second syringe, both of which were submerged in a water bath at 37° C. Changes in metalloporphyrin absorbance as a function of time were recorded following triggering of syringe firing and solution mixing (instrument dead time=2 msec); a total of 1000 data points were collected over intervals ranging from 50 msec to 3 sec. […] Because the absorbance changes associated with loss of +3 forms were greater, rates of metalloporphyrin oxidation were determined by monitoring the disappearance of Mn(III)TMPyP at 462 nm, Mn(III)TBAP at 468 nm, Mn(III)PPIX at 466 nm, and Fe(III)PPIX at 464 nm. Absorbance changes as a function of time were fitted to the equation describing a first order process. The concentration of peroxynitrite was varied from five-fold to forty-fold greater than the fixed metalloporphyrin concentration in order to obtained pseudo first-order conditions (see Table III). Each concentration was injected 10 times and data were averaged automatically prior to fitting.
Rate constants for stoichiometric metalloporphyrin oxidation by peroxynitrite at 37° C. were determined under pseudo-first order reaction conditions by varying the amount of peroxynitrite added to a fixed concentration of metalloporphyrin (Table III).
In Table III, the rate of peroxynitrite-mediated oxidation of metalloporphyrins at 37° C. was determined. Apparent rate constants were determined by stopped-flow spectroscopy and plotted versus the peroxynitrite concentration (as shown for MnTBAP in FIG. 4 inset) to determine the bimolecular rate constant in M^−1s^−1±standard error. FePPIX was monitored at 387 nm, MnPPIX at 464 nm, and MnTBAP at 470 nm.

[5] = MP-catalyzed peroxynitrite decomposition monitored at 302 nm; format: biochemical; conditions: 100 μM peroxynitrite
Method: Peroxynitrite (100 μM) was added to rapidly stirred cuvettes at 37° C. containing the indicated concentrations of MPs in 0.1 M potassium phosphate, pH 7.4. Ascorbate was added to 150 μM where indicated. Peroxynitrite decomposition was monitored at 302 nm using a Hewlett-Packard diode-array spectrophotometer. Apparent rates (kapparents^−1, average of n=3) were plotted versus MP concentration to determine rate constants in M^−1s^−1.
Reactions contained the indicated concentration of FeTCPPin 1.4 ml of 0.1 M potassium phosphate, pH 7.4 in the absence or presence to 150 μM ascorbic acid. Peroxynitrite (100 μM) was added to rapidly stirred cuvettes at 37° C. and the decay of peroxynitrite was monitored continuously at 302 nm. Decay data were fitted to the equation describing first order decay to obtain apparent decay rates (kapparent sec^−1). Apparent decay rates as a function of FeTCPP were fitted by linear regression and the rate constant was obtained slope of the line.
Peroxynitrite (100 μM) decomposition was determined at 302 nm using a Hewlett-Packard diode-array spectrophotometer fitted with a temperature-controlled cuvette chamber and a water-driven cuvette stirrer. Bolus additions of peroxynitrite were made to vigorously stirred cuvettes containing varying concentrations of MPs (see Table III) while data were collected at a rate of ten points/sec. […] Each reaction was repeated three times and only the first additions of peroxynitrite were averaged. Data were exported for fitting and plotting. Apparent rates of peroxynitrite decomposition were plotted as a function of metalloporphyrin concentration (as shown in FIG. 5) to determine concentration-independent rate constants at 37° C.
Rates of peroxynitrite (100 μM) decomposition were determined at different MP concentrations. Ascorbate was added to 150 μM where indicated. […] Apparent rate constants were plotted versus MP concentration (as in FIG. 5A,B) to determine true rate constants in M^−1s^−1±standard error.

[6] = MP-catalyzed nitration of HPA: effect of pH, reductants and serum; format: biochemical; conditions: for enhancement of nitration yield at pH 9.1 / effect of ascorbate on nitration enhancement: 8 mM HPA, 10 μM MP; for enhancement of nitration yield at pH 9.1: 0.1 M sodium borate pH 9.1, versus non-catalyzed; for effect of ascorbate and GSH on nitration enhancement: concentrations which eliminated non-catalyzed nitration; for effect of serum on nitration enhancement: fresh human serum 1:10 added prior to peroxynitrite; for effect of ascorbate on nitration enhancement: ascorbate 150 μM, pH 7.4
Method: Single additions of 100 μM peroxynitrite were made to reactions containing ascorbate or GSH. Three sequential additions of 100 μM peroxynitrite were made to all other reactions.
as §1, with “This” for “For nitration of GYA peptide (see FIG. 6), reaction solutions contained 2 mM GYA and 10 μM of the indicated MP in 1.4 ml of 0.1 M potassium phosphate, pH 7.4 at 37° C. Comparisons with two previously characterized nitration catalysts, human Cu,Zn superoxide dismutase (hCu,Zn SOD) and carbon dioxide, were made using 10 μM of SOD subunit and 25 mM potassium bicarbonate, respectively, which was pH-adjusted to 7.4. This”

Compound: C[n+]1ccc(-c2c3nc(c(-c4cc[n+](C)cc4)c4ccc([n-]4)c(-c4cc[n+](C)cc4)c4nc(c(-c5cc[n+](C)cc5)c5ccc2[n-]5)C=C4)C=C3)cc1.Cc1ccc(S(=O)(=O)[O-])cc1.Cc1ccc(S(=O)(=O)[O-])cc1.Cc1ccc(S(=O)(=O)[O-])cc1.Cc1ccc(S(=O)(=O)[O-])cc1.[Cu+2] [CuTMPyP, Copper (II) meso-tetra-(N-methyl-4-pyridyl)-porphine tetra tosylate]
- effect on nitration [1]: small but reproducible inhibitory effect
- Rate of Ascorbate Oxidation [2]: 6.50 ± 0.32 µM/min
- rate of GSH oxidation [3]: 29 µM/min

Compound: C=CC1=C(C)c2cc3[n-]c(cc4nc(cc5[n-]c(cc1n2)c(C)c5CCC(=O)O)C(CCC(=O)O)=C4C)c(C)c3C=C.[Fe] [FePPIX, Iron (III) protoporphyrin IX dichloride]
- Rate Constants for Oxidation of MPs by Peroxynitrite [4]: 1e+06 M⁻¹ s⁻¹
- Rate Constants for MP-Catalyzed Decomposition of Peroxynitrite (pH 7.4, 37° C.) ([5]; absence of added reductants): 3.7×10^5 M^−1s^−1 and 3.7 × 10^5 ± 0.2 M^−1s^−1
- Rate of Ascorbate Oxidation [2]: 1.33 ± 0.07 µM/min
- enhancement of nitration yield at pH 9.1 [6]: 5.7 fold
- effect of ascorbate and GSH on nitration enhancement [6]: much less inhibitory effect
- effect of serum on nitration enhancement [6]: largely eliminated the nitration enhancement

Compound: C=CC1=C(C)c2cc3[n-]c(cc4[n-]c(cc5nc(cc1n2)C(C)=C5C=C)c(C)c4CCC(=O)[O-])c(CCC(=O)[O-])c3C.[H+].[H+].[Mn+2] [MnPPIX, Manganese (III) protoporphyrin IX dichloride]
- Rate Constants for Oxidation of MPs by Peroxynitrite [4]: 99000 M⁻¹ s⁻¹
- Rate of Ascorbate Oxidation [2]: 0.96 ± 0.05 µM/min
- enhancement of nitration yield at pH 9.1 [6]: did not enhance nitration yields
- effect of ascorbate on nitration enhancement [6]: pronounced inhibitory effect
- effect of ascorbate and GSH on nitration enhancement [6]: largely prevented the enhancement of nitration
- effect of serum on nitration enhancement [6]: largely eliminated the nitration enhancement

Compound: O=C(O)c1ccc(-c2c3nc(c(-c4ccc(C(=O)O)cc4)c4ccc([n-]4)c(-c4ccc(C(=O)O)cc4)c4nc(c(-c5ccc(C(=O)O)cc5)c5ccc2[n-]5)C=C4)C=C3)cc1.[Mn+3] [MnTBAP, Manganese (III) tetra-(4-benzoic acid)-porphyrin]
- Rate Constants for Oxidation of MPs by Peroxynitrite [4]: 25000 M⁻¹ s⁻¹
- Rate Constants for MP-Catalyzed Decomposition of Peroxynitrite (pH 7.4, 37° C.) ([5]; absence of added reductants): no acceleration
- Rate Constants for MP-Catalyzed Decomposition of Peroxynitrite (pH 7.4, 37° C.) ([5]; plus ascorbate 150 μM): 3.3 × 10^4 ± 0.4 M^−1s^−1
- enhancement of nitration yield at pH 9.1 [6]: did not enhance nitration yields
- effect of ascorbate on nitration enhancement [6]: pronounced inhibitory effect
- effect of ascorbate and GSH on nitration enhancement [6]: largely prevented the enhancement of nitration
- effect of serum on nitration enhancement [6]: largely eliminated the nitration enhancement

From patent US6372727B1, “Metalloporphyrin treatment of neurologic disease” (UAB Research Foundation, priority 1999, dated 2002)
